Legend:
EGFR A763_Y764insFHEA = EGFR A763_Y764insFHEA (Homo sapiens (Human), UniProt P00533, INS763FHEA); experiment: HTRF inhibitory activity against EGFR mutant enzyme (EGFR A763_Y764insFHEA); assay type: biochemical; conditions: recombinant enzyme, 37° C. for 2 hours
Method: (§1) The activity of the compounds of the present invention against EGFR mutant enzymes was measured using the HTRF system purchased from Cisbio as follows. For an EGFR mutant enzyme, the EGFR del19 enzyme was a recombinant protein purchased from Carna Biosciences, and the EGFR A763_Y764insFHEA enzyme was a recombinant protein purchased from SignalChem, respectively.
(§2) The composition of the assay buffer used for activity measurement was 50 mM tris-HCl pH 7.5, 100 mM NaCl, 7.5 mM MgCl2, 3 mM KCl, 0.01% tween 20, 0.1% BSA, and 1 mM DTT. An enzymatic reaction was performed using a peptide substrate labeled with ATP at a concentration of […] and biotin at a concentration of […]. The analysis of the inhibitory effect of the compounds on EGFR activity was performed according to the following method. • Component 1:4 μL of EGFR mutant enzyme • Component 2:2 μL of compound solution • Component 3:4 μL of ATP and a biotin labeled peptide
(§3) The enzyme reaction begins by first mixing component 1 and component 2 and then adding component 3 thereto. After the reaction at 37° C. for 2 hours, […] of a measurement solution consisting of streptavidin-XL665 and a europium-labeled anti-phosphotyrosine antibody purchased from Cisbio was added to the enzyme reaction solution and reacted at room temperature for 1 hour. Finally, the ratio of fluorescence values at 615 nm and 665 nm was measured using Perkin-Elmer's Envision instrument to calculate enzyme activity and confirm the inhibitory ability of the compounds. The measured values at 7 compound concentrations were analyzed using the Prism program (version 5.01, Graphpad Software, Inc.), and the IC50 (μM) values, which are measures of the compounds' inhibitory activity, were calculated.

[1] = test system: Ba/F3 EGFR D770_N771insSVD; experiment: Growth inhibition of Ba/F3 EGFR mutant cells (CellTiter-Glo); assay type: cell-based; conditions: Ba/F3 EGFR-D770-N771ins_SVD, 72 hours
Method: (§4) The activity of the compounds of the present invention against Ba/F3 EGFR V769_D770insASV and Ba/F3 EGFR D770_N771insSVD mutant cell lines was measured using the CellTiter-Glo system purchased from Promega as follows. CellTiter-Glo assay is a method to measure cell viability by monitoring ATP present in cells. Ba/F3 EGFR V769_D770insASV and Ba/F3 EGFR D770_N771insSVD mutant cell lines were purchased from Crown Biosciences. Ba/F3 EGFR V769_D770insASV and Ba/F3 EGFR D770_N771insSVD mutant cell lines were cultured in RPMI containing 10% FBS and 1% penicillin-streptomycin with 1 μg/mL of puromycin in a 5% CO2 incubator at 37° C.
(§5) The analysis of the ability of the compounds to inhibit the growth of EGFR mutant cells was performed according to the following method. 1,000 cells/100 μL were seeded in a 96-well cell culture plate, and 24 hours thereafter, the compounds represented by Formula 1 were treated with 0 μM, 0.01 μM, 0.03 μM, 0.1 μM, 0.3 μM, 1 μM, 3 μM, and 10 μM. After incubating for 72 hours, the plate treated with the compounds were left at room temperature for 30 minutes, 100 μL of a reagent was further added thereto, and then shaken at room temperature for 10 minutes. Finally, using equipment, the ratio of […] was measured to confirm the cell growth inhibition ability of the compounds. The measured values at 8 compound concentrations were analyzed using the Prism program (version 5.01, Graphpad Software, Inc.), and the IC50 (μM) values, which are measures of the compounds' inhibitory ability, were calculated.

[2] = test system: Ba/F3 EGFR V769_D770insASV; experiment: as above; assay type: cell-based; conditions: 72 hours
Method: as §4, §5

EGFR del19 = EGFR del19 (Homo sapiens (Human), UniProt P00533, DEL746-750); experiment: HTRF inhibitory activity against EGFR mutant enzyme (EGFR del19); assay type: biochemical; conditions: recombinant enzyme, 37° C. for 2 hours
Method: as §1, §2, §3

HER2 A775_G776insYVMA = HER2 A775_G776insYVMA (Homo sapiens (Human), UniProt P04626, INS775YVMA); experiment: HTRF inhibitory activity against HER2 mutant enzyme; assay type: biochemical; conditions: recombinant enzyme, 37° C. for 2 hours
Method: The activity of the compounds of the present invention against HER mutant enzymes was measured using the HTRF system purchased by Cisbio as follows. As a HER2 mutant enzyme, the HER2 A775_G776insYVMA mutant enzyme was used by purchasing a recombinant protein provided by Carna Biosciences.
as §2, with “mM DTT. In addition thereto, the enzymatic reaction” for “mM DTT. An enzymatic reaction”, “of the activity inhibitory effect” for “of the inhibitory effect”, “compounds on HER2 A775_G776insYVMA mutation was performed” for “compounds on EGFR activity was performed”, “μL of HER2 A775_G776insYVMA mutant enzyme” for “μL of EGFR mutant enzyme”
as §3, with “Finally, the ratio of fluorescence values at 615 nm and 665 nm was measured using Perkin-Elmer's Envision instrument to calculate enzyme activity and confirm the inhibitory ability of the compounds.” left out, “ability,” for “activity,”

[3] = test system: Ba/F3 HER2 A775_G776insYVMA; experiment: Growth inhibition of Ba/F3 HER2 mutant cells (CellTiter-Glo); assay type: cell-based; conditions: Mus musculus, BaF3, 72 hours
Method: as §4, with “HER2 A775_G776insYVMA” for “EGFR V769_D770insASV”, “HER2 G776delinsVC” for “EGFR D770_N771insSVD”, “a” for “a 5%”
as §5, with “HER2” for “EGFR”, “reacting” for “incubating”, “was” for “was further”

Sequence of EGFR A763_Y764insFHEA (P00533 other isoform, or with tags, fused parts or gaps del 1-694/ins FHEA behind 763 limits assumed): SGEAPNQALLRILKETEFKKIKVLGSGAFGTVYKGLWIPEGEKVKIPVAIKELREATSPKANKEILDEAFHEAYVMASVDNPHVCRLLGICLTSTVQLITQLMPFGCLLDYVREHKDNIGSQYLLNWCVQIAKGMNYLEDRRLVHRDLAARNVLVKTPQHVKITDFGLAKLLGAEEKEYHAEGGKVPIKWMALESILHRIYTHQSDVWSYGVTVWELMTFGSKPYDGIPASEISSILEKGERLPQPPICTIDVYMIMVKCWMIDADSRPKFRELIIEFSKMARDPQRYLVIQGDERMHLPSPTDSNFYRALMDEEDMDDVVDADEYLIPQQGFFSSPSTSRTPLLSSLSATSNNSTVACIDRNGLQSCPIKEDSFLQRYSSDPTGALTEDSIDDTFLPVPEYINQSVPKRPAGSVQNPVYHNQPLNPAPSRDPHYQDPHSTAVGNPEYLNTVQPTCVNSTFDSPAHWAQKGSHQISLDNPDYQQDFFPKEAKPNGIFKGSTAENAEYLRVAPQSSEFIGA
Sequence of HER2 A775_G776insYVMA (P04626 other isoform, or with tags, fused parts or gaps del 1-675/ins YVMA behind 775 limits assumed): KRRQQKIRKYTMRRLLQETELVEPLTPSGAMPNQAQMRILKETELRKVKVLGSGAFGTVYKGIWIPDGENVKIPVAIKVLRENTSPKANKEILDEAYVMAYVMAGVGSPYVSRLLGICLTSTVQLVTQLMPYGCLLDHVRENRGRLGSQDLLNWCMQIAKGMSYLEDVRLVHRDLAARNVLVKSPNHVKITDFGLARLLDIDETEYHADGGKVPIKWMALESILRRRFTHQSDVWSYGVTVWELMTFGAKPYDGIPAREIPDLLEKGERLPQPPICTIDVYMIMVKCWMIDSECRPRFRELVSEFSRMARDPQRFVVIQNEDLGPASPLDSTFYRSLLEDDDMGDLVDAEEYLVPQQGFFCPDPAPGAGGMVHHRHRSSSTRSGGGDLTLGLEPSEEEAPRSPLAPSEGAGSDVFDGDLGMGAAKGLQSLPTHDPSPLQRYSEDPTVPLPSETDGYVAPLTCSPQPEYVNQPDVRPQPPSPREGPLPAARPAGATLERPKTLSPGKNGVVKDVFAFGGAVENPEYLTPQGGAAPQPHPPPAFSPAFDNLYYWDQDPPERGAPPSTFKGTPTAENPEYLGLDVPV
Sequence of EGFR del19 (P00533 other isoform, or with tags, fused parts or gaps del 1-668/del 746-750 limits assumed): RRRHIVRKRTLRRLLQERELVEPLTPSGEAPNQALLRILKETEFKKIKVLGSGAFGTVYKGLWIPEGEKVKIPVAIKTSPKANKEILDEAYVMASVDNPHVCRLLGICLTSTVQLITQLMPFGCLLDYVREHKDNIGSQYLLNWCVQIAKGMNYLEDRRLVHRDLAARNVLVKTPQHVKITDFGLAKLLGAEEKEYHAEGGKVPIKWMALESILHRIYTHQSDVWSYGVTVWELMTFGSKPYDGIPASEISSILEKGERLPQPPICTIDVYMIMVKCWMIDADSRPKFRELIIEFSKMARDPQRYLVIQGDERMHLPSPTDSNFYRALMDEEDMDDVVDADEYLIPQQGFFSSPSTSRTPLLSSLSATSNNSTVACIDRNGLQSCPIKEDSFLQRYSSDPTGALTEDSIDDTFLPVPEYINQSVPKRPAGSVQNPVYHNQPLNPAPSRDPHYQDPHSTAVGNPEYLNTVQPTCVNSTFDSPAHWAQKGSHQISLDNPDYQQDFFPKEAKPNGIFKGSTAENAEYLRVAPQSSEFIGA

Row | Compound | IC50 (EGFR A763_Y764insFHEA) [nM] | IC50 [1] [nM] | IC50 [2] [nM] | IC50 (EGFR del19) [nM] | IC50 (HER2 A775_G776insYVMA) [nM] | IC50 [3] [nM]
1 | C=CC(=O)Nc1cc(Nc2ncc(Cl)c(Nc3cccc4c3N(S(C)(=O)=O)CC4)n2)c(OC)cc1OCCN1CCCC1 [Example 79, N-(5-((5-chloro-4-((1-(methylsulfonyl)indolin-7-yl)amino)pyrimidin-2-yl)amino)-4-methoxy-2-(2-(pyrrolidin-1-yl)ethoxy)phenyl)acrylamide] | < 1 | < 10 | 10 to 30 | < 1 | 1 | –
2 | C=CC(=O)Nc1cc(Nc2ncc(Cl)c(Nc3cccc4c3N(S(C)(=O)=O)CC4)n2)c(OC)cc1N(C)CCN1CCC1 [Example 80, N-(2-((2-(azetidin-1-yl)ethyl)(methyl)amino)-5-((5-chloro-4-((1-(methylsulfonyl)indolin-7-yl)amino)pyrimidin-2-yl)amino)-4-methoxyphenyl)acrylamide] | < 1 | < 10 | < 10 | < 1 | 1 | –
3 | C=CC(=O)Nc1cc(Nc2ncc(Cl)c(Nc3ccc(C)cc3N(C)S(C)(=O)=O)n2)c(OC)cc1N(C)CCN1CCC1 [Example 82, N-(2-((2-(azetidin-1-yl)ethyl)(methyl)amino)-5-((5-chloro-4-((4-methyl-2-(N-methylmethylsulfonamido)phenyl)amino)pyrimidin-2-yl)amino)-4-methoxyphenyl)acrylamide] | < 1 | < 10 | < 10 | < 1 | 2 | –
4 | C=CC(=O)Nc1cc(Nc2ncc(Cl)c(Nc3ccccc3NS(=O)(=O)c3ccc(C)cc3)n2)c(OC)cc1N(C)CCN(C)C [Example 3, N-(5-((5-chloro-4-((2-((4-methylphenyl)sulfonamido)phenyl)amino)pyrimidin-2-yl)amino)-2-((2-(dimethylamino)ethyl)(methyl)amino)-4-methoxyphenyl)acrylamide] | 2 | – | – | < 1 | 450 | 30 to 50
5 | C=CC(=O)Nc1cc(Nc2nccc(Nc3ccccc3NS(C)(=O)=O)n2)c(OC)cc1N(C)CCN(C)C [Example 7, N-(2-((2-(dimethylamino)ethyl)(methyl)amino)-4-methoxy-5-((4-((2-(methylsulfonamido)phenyl)amino)pyrimidin-2-yl)amino)phenyl)acrylamide] | 5 | – | – | < 1 | 280 | 30 to 50
6 | C=CC(=O)Nc1cc(Nc2nccc(Nc3ccccc3NS(=O)(=O)c3ccccc3)n2)c(OC)cc1N(C)CCN(C)C [Example 6, N-(2-((2-(dimethylamino)ethyl)(methyl)amino)-4-methoxy-5-((4-((2-(phenylsulfonamido)phenyl)amino)pyrimidin-2-yl)amino)phenyl)acrylamide] | 20 | – | – | 7 | 1200 | 30 to 50
7 | C=CC(=O)Nc1cc(Nc2ncc(Cl)c(Nc3ccccc3NS(=O)(=O)C(C)C)n2)c(OC)cc1N(C)CCN(C)C [Example 5, N-(5-((5-chloro-4-((2-((1-methylethyl)sulfonamido)phenyl)amino)pyrimidin-2-yl)amino)-2-((2-(dimethylamino)ethyl)(methyl)amino)-4-methoxyphenyl)acrylamide] | < 1 | – | – | < 1 | 34 | 30 to 50

Next, values leading:

Row | IC50 (EGFR A763_Y764insFHEA) [nM] | IC50 [1] [nM] | IC50 [2] [nM] | IC50 (EGFR del19) [nM] | IC50 (HER2 A775_G776insYVMA) [nM] | IC50 [3] [nM] | Compound
8 | 3 | – | – | < 1 | 310 | 30 to 50 | C=CC(=O)Nc1cc(Nc2ncc(Cl)c(Nc3ccccc3NS(=O)(=O)c3ccccc3)n2)c(OC)cc1N(C)CCN(C)C [Example 2, N-(5-((5-chloro-4-((2-(phenylsulfonamido)phenyl)amino)pyrimidin-2-yl)amino)-2-((2-(dimethylamino)ethyl)(methyl)amino)-4-methoxyphenyl)acrylamide]
9 | 3 | – | – | 1 | 46 | 30 to 50 | C=CC(=O)Nc1cc(Nc2ncc(Cl)c(Nc3ccccc3NS(C)(=O)=O)n2)c(OC)cc1N(C)CCN1CCCC1 [Example 21, N-(5-((5-chloro-4-((2-(methylsulfonamido)phenyl)amino)pyrimidin-2-yl)amino)-4-methoxy-2-(methyl(2-(pyrrolidin-1-yl)ethyl)amino)phenyl)acrylamide]
10 | 1 | – | > 100 | < 1 | 71 | > 100 | C=CC(=O)Nc1cc(Nc2ncc(F)c(Nc3ccccc3NS(C)(=O)=O)n2)c(OC)cc1N(C)CCN(C)C [Example 11, N-(2-((2-(dimethylamino)ethyl)(methyl)amino)-5-((5-fluoro-4-((2-(methylsulfonamido)phenyl)amino)pyrimidin-2-yl)amino)-4-methoxyphenyl)acrylamide]
11 | 2 | – | > 100 | < 1 | 51 | > 100 | C=CC(=O)Nc1cc(Nc2ncc(C)c(Nc3ccccc3NS(C)(=O)=O)n2)c(OC)cc1N(C)CCN(C)C [Example 16, N-(2-((2-(dimethylamino)ethyl)(methyl)amino)-4-methoxy-5-((5-methyl-4-((2-(methylsulfonamido)phenyl)amino)pyrimidin-2-yl)amino)phenyl)acrylamide]

Reference: patent US20240343694A1, “PYRIMIDINE DERIVATIVE, METHOD FOR PREPARING SAME, AND PHARMACEUTICAL COMPOSITION FOR PREVENTING OR TREATING CANCER COMPRISING SAME AS ACTIVE INGREDIENT” (KOREA RESERARCH INSTITUTE OF CHEMICAL TECHNOLOGY, priority 2021, published 2024)
